Assay results: paper PMC12311259, “Antifibrotic effects of specific targeting of the 5‐hydroxytryptamine 2B receptor (5‐HT2BR) in murine models and ex vivo models of scleroderma skin” (Arthritis & Rheumatology (Hoboken, N.j.), 2025)
Entries after “also recorded” stand apart in the source; their conditions may differ.

How the values were obtained:
human 5-HT2BR = biological target: T1, human 5-HT2BR (Homo sapiens, UniProt P41595); test: Functionality assay, HTRF quantification of IP1 accumulation in CHO-K1 cells; format: cell-based
T1 construct: 355260 (IP1); host or cells: CHO-K1

5-HT2CR = biological target: T2, 5-HT2CR (Homo sapiens, UniProt P28335); test: Functionality assay, [35S]GTPγS binding; format: biochemical; conditions: inhibition of 5-HT (100 nM) induced [35S]GTPγS binding; read-out: IC50, antagonistic activity, human 5-HT2C
T2 construct: 355200 (GTPγS); host or cells: CHO-K1
Experimental: (§1) The binding profile of AM1476 was evaluated for binding to human 5‐HT2AR, 5‐HT2BR, and 5‐HT2CR in radioligand binding assays using Chinese hamster ovary (CHO‐K1) cells overexpressing human receptors (in vitro assays 271650, 271700, and 271800; Eurofins Panlabs Discovery). AM1476 was evaluated at 0.1, 1, 10, 100, 1,000, and 10,000 nM (5‐HT2BR) or at 1, 10, 100, 1,000, and 10,000 nM (5‐HT2AR and 5‐HT2CR). Human 5‐HT2AR and 5‐HT2BR functionality was measured with homogeneous time‐resolved fluorescence quantification of IP1 accumulation in CHO‐K1 cells (in vitro assays 355250 and 355260). Compounds creating a ≥50% inhibition of 5‐HT (5 nM) induced fluorescence response specified receptor antagonist activity. 5‐HT2CR functionality was assessed with [35S] GTPγS for quantification of bound GTPγS. Compounds creating a ≥50% inhibition of 5‐HT (100 nM) induced [35S] GTPγS binding response specified receptor antagonist activity (in vitro assay 355200). AM1476 was evaluated at 0.1, 0.3, 1, 3, 10, 30, and 300 nM (5‐HT2BR) or 1, 10, 100, 1,000, and 10,000 nM (5‐HT2AR and 5‐HT2CR). […] Mouse 5‐HT2BR functionality was measured in a calcium influx assay (Charles River) in CHO‐KI cells expressing the mouse 5‐HT2BR using a calcium sensitive dye and a fluorescence imaging plate reader (FLIPRTETRA) instrument. AM1476 was evaluated at 0.3, 1, 3, 10, 30, 100, 300, and 1,000 nM.

Mouse 5-HT2BR = biological target: T3, Mouse 5-HT2BR (Mus musculus, UniProt Q02152); test: Calcium influx functionality assay (FLIPR) in CHO-K1 cells expressing mouse 5-HT2BR; format: cell-based; conditions: agonist 5 nM α-methylserotonin
T3 construct: host or cells: CHO-K1
Experimental: as §1, with “nM. […]” for “nM.”

[1] = biological target: T4, Serotonin (5-Hydroxytryptamine) 5-HT7 (hu) (Homo sapiens, UniProt P34969); test: Receptor binding, Eurofins Panlabs 272320
T4 construct: Eurofins Panlabs 272320
Text: (§2) Effects were considered significant if AM1476's mean value was three or more SDs above the vehicle control mean in the agonist assay or three or more SDs below the positive control agonist (5‐nM α‐methylserotonin) mean in the antagonist assay. AM1476 was screened for selectivity against approximately 200 targets using a Eurofins Panlabs Spectrum screen panel including enzymatic and receptor binding assays.

Adrenergic α1B (hu) = biological target: T5, Adrenergic α1B (hu) (Homo sapiens, UniProt P35368); test: Functionality assay, IP1, Eurofins Panlabs 302060; format: cell-based
T5 construct: Eurofins Panlabs 302060
Text: as §2

Tsk-1 mice = test: Tsk-1 mouse model of skin fibrosis; format: in vivo
Experimental: AM1476 was dissolved in sterile distilled water for the ex vivo and in vivo experiments. A concentration of 30 μM was applied for the ex vivo experiment. For the in vivo experiments, 1, 3, or 10 mg/kg was administered orally once or twice daily.
In the murine Tsk‐1 model of SSc, a dominant mutation in the fibrillin 1 gene leads to an SSc‐like disease, with minor inflammatory infiltrates, autoantibody production, and fibrosis of the skin. This model reflects the later stages of SSc characterized by noninflammatory self‐sustaining fibrosis. Eight to 12 mice per group were analyzed. Treatment was initiated at an age of five weeks, and the outcome was analyzed at an age of 10 weeks.[11]
(§3) Skin samples were fixed in 4% formalin for six hours and embedded in paraffin. Five‐micrometer sections were cut and stained with hematoxylin and eosin (H&E). The dermal thickness was quantified on H&E‐stained sections using images captured with a light microscope (Nikon eclipse 80i) at 100‐fold magnification by manually measuring the distance between the epidermal‐dermal junction and the dermal‐subcutaneous fat junction at four sites per mouse.[15], [16] For lung samples, the whole left lung was fixed in 4% formalin for six hours and embedded in paraffin. Five‐micrometer sections were cut and stained with trichrome and sirius red. Histologic readouts were evaluation of the fibrotic area as the percentage of the total lung area in sirius red–stained sections (two sections per mouse) and quantification of pulmonary changes using the Ashcroft score (four sections per mouse).[17], [18]
(§4) The amount of collagen protein in skin and lung samples was determined by hydroxyproline assay.[19], [20] After digestion in 6 M HCl for three hours at 120°C, the pH of the samples was adjusted to a pH range of 6–7 with 6 M NaOH. Afterward, 0.06 M chloramine T was added to each sample and incubated for 20 minutes at room temperature. Next, 3.15 M perchloric acid and 20% p‐dimethylaminobenzaldehyde were added, and samples were incubated for an additional 20 minutes at 60°C. The absorbance was determined at 557 nm with a Spectra MAX 190 microplate spectrophotometer. Absolute values were determined using a standard curved generated with type I collagen (Sigma‐Aldrich).
Myofibroblasts are characterized by the expression of α‐smooth muscle actin (α‐SMA). Fibroblasts positive for α‐SMA were detected by immunohistochemistry staining with monoclonal anti–α‐SMA antibodies (clone 1A4, Sigma‐Aldrich). The expression was visualized with horseradish peroxidase–labeled secondary antibodies and 3,3‐diaminobenzidine tetra hydrochloride (Sigma‐Aldrich). Monoclonal mouse IgG antibodies (Calbiochem) were used as controls. Images of sections stained for α‐SMA were captured on a light microscope (Nikon eclipse 80i). The myofibroblast number was manually evaluated at four different areas at 200‐fold magnification. Myofibroblasts were defined as α‐SMA positive, single, and spindle‐shaped cells in the dermis.[5], [21]

[2] = tested on: Bleomycin-induced pulmonary fibrosis; test: Bleomycin-induced pulmonary fibrosis in mice; format: in vivo, mouse
Experimental: Pulmonary fibrosis was induced by a single intratracheal instillation of bleomycin (25 μg in 50 μL of 0.9% NaCl).[12] Treatment was initiated at two weeks after the first injection of bleomycin. AM1476 was administered orally at 1, 3, or 10 mg/kg once daily. Solvent (double‐distilled water) was used as a control, and nintedanib at 30 mg/kg orally every day (qd) was included as a comparator. The outcome was analyzed at two and four weeks after the first injection of bleomycin. Mice injected with 0.9% NaCl, the vehicle of bleomycin, served as nonfibrotic controls. Eight mice per group were analyzed.
as §3, §4

[3] = all three doses, vs vehicle-treated 10-week-old Tsk-1 mice
[4] = all doses (1, 3, 10 mg/kg orally once daily), vs vehicle-treated bleomycin-challenged mice

T1 sequence (P41595 whole entry): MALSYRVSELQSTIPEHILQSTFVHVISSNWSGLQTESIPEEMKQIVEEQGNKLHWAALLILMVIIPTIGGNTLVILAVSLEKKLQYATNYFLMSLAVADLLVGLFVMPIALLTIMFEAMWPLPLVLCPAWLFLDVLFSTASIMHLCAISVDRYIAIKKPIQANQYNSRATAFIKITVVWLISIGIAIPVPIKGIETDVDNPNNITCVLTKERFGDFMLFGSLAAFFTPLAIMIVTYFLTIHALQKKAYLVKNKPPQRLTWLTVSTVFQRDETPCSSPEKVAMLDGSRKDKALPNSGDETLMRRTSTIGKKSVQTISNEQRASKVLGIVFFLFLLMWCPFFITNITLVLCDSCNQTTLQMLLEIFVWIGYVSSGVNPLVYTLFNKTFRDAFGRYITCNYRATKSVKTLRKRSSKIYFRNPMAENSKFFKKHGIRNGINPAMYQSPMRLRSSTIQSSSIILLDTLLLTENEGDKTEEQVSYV
T5 sequence (P35368 whole entry): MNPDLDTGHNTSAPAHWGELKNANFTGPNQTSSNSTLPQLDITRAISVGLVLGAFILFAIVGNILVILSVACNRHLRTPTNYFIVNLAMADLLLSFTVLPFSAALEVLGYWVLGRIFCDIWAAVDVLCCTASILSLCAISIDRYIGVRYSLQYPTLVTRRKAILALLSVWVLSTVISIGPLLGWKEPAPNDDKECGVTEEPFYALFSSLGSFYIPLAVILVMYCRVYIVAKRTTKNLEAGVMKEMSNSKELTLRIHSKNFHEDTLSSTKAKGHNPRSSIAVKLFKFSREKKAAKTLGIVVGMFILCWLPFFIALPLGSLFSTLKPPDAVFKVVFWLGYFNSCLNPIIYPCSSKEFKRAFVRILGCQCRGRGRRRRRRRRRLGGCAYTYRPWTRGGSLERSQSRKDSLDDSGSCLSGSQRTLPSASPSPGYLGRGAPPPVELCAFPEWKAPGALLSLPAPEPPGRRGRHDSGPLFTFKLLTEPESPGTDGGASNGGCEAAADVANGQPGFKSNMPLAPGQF
T4 sequence (P34969 whole entry): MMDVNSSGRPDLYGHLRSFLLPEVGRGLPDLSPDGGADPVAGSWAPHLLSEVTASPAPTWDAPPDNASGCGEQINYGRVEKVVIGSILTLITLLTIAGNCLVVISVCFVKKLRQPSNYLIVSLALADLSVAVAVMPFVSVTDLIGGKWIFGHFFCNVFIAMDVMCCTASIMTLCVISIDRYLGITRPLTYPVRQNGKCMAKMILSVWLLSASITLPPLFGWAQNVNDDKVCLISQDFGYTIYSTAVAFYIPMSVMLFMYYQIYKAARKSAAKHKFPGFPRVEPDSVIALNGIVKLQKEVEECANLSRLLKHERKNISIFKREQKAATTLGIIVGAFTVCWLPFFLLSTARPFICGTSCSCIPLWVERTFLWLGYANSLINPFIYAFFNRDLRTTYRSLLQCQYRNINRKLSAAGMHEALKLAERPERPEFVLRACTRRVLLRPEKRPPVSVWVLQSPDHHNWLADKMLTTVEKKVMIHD
T2 sequence (P28335 33-458): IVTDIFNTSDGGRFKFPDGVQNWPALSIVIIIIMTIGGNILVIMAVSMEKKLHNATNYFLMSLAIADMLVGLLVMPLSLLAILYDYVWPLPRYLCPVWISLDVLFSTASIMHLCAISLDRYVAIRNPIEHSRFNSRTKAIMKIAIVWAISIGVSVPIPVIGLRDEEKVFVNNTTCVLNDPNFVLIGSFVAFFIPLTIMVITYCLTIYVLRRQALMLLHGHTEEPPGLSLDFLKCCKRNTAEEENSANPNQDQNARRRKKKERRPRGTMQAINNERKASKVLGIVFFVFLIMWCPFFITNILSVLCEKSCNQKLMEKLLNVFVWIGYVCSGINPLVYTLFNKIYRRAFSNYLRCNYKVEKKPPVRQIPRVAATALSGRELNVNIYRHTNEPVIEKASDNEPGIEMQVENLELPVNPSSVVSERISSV
T3 sequence (Q02152 whole entry): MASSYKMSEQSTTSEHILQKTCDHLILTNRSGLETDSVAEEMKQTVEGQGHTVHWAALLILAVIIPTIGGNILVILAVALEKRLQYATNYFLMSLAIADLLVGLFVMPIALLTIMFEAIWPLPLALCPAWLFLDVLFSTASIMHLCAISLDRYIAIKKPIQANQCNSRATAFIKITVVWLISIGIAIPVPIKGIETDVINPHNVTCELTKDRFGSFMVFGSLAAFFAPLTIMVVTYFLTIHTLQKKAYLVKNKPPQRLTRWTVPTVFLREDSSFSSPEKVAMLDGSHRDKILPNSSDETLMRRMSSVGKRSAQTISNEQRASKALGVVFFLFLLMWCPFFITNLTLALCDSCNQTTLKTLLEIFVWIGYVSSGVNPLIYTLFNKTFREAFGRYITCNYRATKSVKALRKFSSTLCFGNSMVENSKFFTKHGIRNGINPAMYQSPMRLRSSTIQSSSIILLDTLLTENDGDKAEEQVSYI

C[C@@H]1CN(C(=N)N)N=C1c1ccc(F)cc1O [AM1476] was tested, and the “agonistic activity at 5-HT2BR” value (human 5-HT2BR) was “devoid of agonistic activity; also recorded: no agonism”, the IC50 (human 5-HT2BR; inhibition of 5-HT (5 nM) induced IP1 response, CHO-K1, read-out: IC50, antagonistic activity, human 5-HT2B) was 5.8 nM and the IC50 (5-HT2CR) was 3100 nM. The IC50 (Mouse 5-HT2BR) was 11.5 nM, the “% Inhibition at 1 µM, 5-HT7 (hu)” value ([1]; 1 µM (value in brackets)) was 39% and the “% Inhibition at 10 µM, 5-HT7 (hu)” value ([1]; 10 µM) was 91%. For the same compound, the IC50 (Adrenergic α1B (hu)) was 9530 nM, the “agonistic activity, Adrenergic α1B” value (Adrenergic α1B (hu); at 30 µM) was “No significant agonistic activity at 30 µM” and the “hydroxyproline content vs five-week-old Tsk-1 mice (pretreatment level)” value (Tsk-1 mice; 10 mg/kg qd or 10 mg/kg bid) was “comparable”. The “hypodermal thickness vs five-week-old Tsk-1 mice (pretreatment level)” value (Tsk-1 mice; 10 mg/kg qd or 10 mg/kg bid) was “comparable”, the hydroxyproline content (Tsk-1 mice; [3]) was “reduced” and the hypodermal thickening (Tsk-1 mice; [3]) was “reduced”. For the same compound, the myofibroblast counts (Tsk-1 mice; [3]) was “reduced”, the “antifibrotic effects relative to comparator, across the different readouts” value ([2]; AM1476 1, 3, 10 mg/kg orally once daily) was “comparable to those of nintedanib” and the Ashcroft scores [2, 4] was “decreases”. The collagen-covered area [2, 4] was “decreases” and the hydroxyproline content [2, 4] was “decreases”.
